Test results taken from patent publication US20240166652A1, “MODULATORS OF THE INTEGRATED STRESS PATHWAY” (Calico Life Sciences LLC, priority 2017, published 2024).

Test system: ATF4 luciferase reporter in HEK293T cells
Assay: ATF4-Luc assay (ATF4 luciferase reporter, tunicamycin-treated HEK293T cells)
Format: cell-based, human
Details: Homo sapiens, HEK-293T; HEK293T cells carrying the ATF4 luciferase reporter, 1 μg/mL tunicamycin, 7 hours

For O=C(COc1ccc(Cl)c(F)c1)NC12CC(NC(=O)Cc3ccccn3)(C1)C2 [Compound 448, 2-(4-chloro-3-fluorophenoxy)-N-{3-[2-(pyridin-2-yl)acetamido]bicyclo[1.1.1]pentan-1-yl}acetamide], which EC50 is on record?
The EC50 was over 2000 nM.

Which EC50 does the source give for O=C(CO)NC(COC(=O)NC12CC(NC(=O)COc3ccc(Cl)c(F)c3)(C1)C2)c1ccc(Cl)cc1 (centres unmarked) [Compound 791, 2-(4-chlorophenyl)-2-(2-hydroxyacetamido)ethyl {3-[2-(4-chloro-3-fluorophenoxy)acetamido]bicyclo[1.1.1]pentan-1-yl}carbamate] here?
Its EC50 is over 2000 nM.

How did the EC50 turn out when CCc1ccc(OCC(=O)NC23CCC(NC(=O)COc4ccc(Cl)c(F)c4)(CC2)[C@@H](O)C3)cc1 [Compound 782, 2-(4-chloro-3-fluorophenoxy)-N-{(2S)-4-[2-(4-ethylphenoxy)acetamido]-2-hydroxybicyclo[2.2.2]octan-1-yl}acetamide] was run?
The EC50 was under 10 nM.

For O=C(COc1ccc(Cl)c(F)c1)NC12CCC(NC(=O)COc3ccc(F)cc3)(CC1)C(O)C2 (centres unmarked) [Compound 345, 2-(4-chloro-3-fluorophenoxy)-N-{4-[2-(4-fluorophenoxy)acetamido]-3-hydroxybicyclo[2.2.2]octan-1-yl}acetamide], which EC50 is on record?
The EC50 was under 10 nM.

For O=C(COc1ccc(OC(F)F)cc1)NC12CC(NC(=O)COc3ccc(Cl)c(F)c3)(C1)C2 [Compound 397, 2-(4-chloro-3-fluorophenoxy)-N-(3-{2-[4-(difluoromethoxy)phenoxy]acetamido}bicyclo[1.1.1]pentan-1-yl)acetamide], which EC50 is on record?
The EC50 was 10 to 50 nM.

Which EC50 does the source give for O=C(COc1cncc(C(F)(F)F)c1)NC12CC(NC(=O)COc3ccc(Cl)c(F)c3)(C1)C2 [Compound 230, 2-(4-chloro-3-fluorophenoxy)-N-[3-(2-{[5-(trifluoromethyl)pyridin-3-yl]oxy}acetamido)bicyclo[1.1.1]pentan-1-yl]acetamide] here?
The EC50 was 10 to 50 nM.

How did the EC50 turn out when O=C(COc1ccc(Cl)c(F)c1)NC12CCC(NC(=O)COc3ccc4c(c3)OC(F)(F)O4)(CC1)C(O)C2 (centres unmarked) [Compound 305, 2-(4-chloro-3-fluorophenoxy)-N-(4-{2-[(2,2-difluoro-2H-1,3-benzodioxol-5-yl)oxy]acetamido}-3-hydroxybicyclo[2.2.2]octan-1-yl)acetamide] was run?
Its EC50 is under 10 nM.

For O=C(COc1ccc(Cl)cc1)NC12CCC(NC(=O)COc3ccc(Cl)c(Cl)c3)(CC1)[C@@H](O)C2 [Compound 582, 2-(4-chlorophenoxy)-N-{(3S)-4-[2-(3,4-dichlorophenoxy)acetamido]-3-hydroxybicyclo[2.2.2]octan-1-yl}acetamide], which EC50 is on record?
Its EC50 is under 10 nM.

For CN(C)C1CC2(NC(=O)COc3ccc(Cl)c(F)c3)CCC1(NC(=O)COc1ccc(Cl)c(F)c1)CC2 (centres unmarked) [Compound 300, N,N′-[2-(dimethylamino)bicyclo[2.2.2]octane-1,4-diyl]bis[2-(4-chloro-3-fluorophenoxy)acetamide]], which EC50 is on record?
Its EC50 is 10 to 50 nM.

With Cc1ncc2c(c1OCC(=O)NC13CCC(NC(=O)COc4ccc(Cl)c(F)c4)(CC1)C[C@@H]3O)COC2 [Compound 499, 2-(4-chloro-3-fluorophenoxy)-N-[(3S)-3-hydroxy-4-{2-[(6-methyl-1,3-dihydrofuro[3,4-c]pyridin-7-yl)oxy]acetamido}bicyclo[2.2.2]octan-1-yl]acetamide] as the molecule, how does the EC50 read?
The EC50 was over 2000 nM.

For O=C(COc1ccc(Cl)cc1)NC12CCC(NC(=O)COc3ccc(F)c(F)c3)(CC1)CC2 [Compound 740, 2-(4-chlorophenoxy)-N-{4-[2-(3,4-difluorophenoxy)acetamido]bicyclo[2.2.2]octan-1-yl}acetamide], which EC50 is on record?
The EC50 was 10 to 50 nM.

With O=C(COc1ccc(Cl)c(F)c1)NC12CCC(NC(=O)COc3cnn(CC(F)(F)F)c(=O)c3)(CC1)C(O)C2 (centres unmarked) [Compound 334, 2-(4-chloro-3-fluorophenoxy)-N-[3-hydroxy-4-(2-{[6-oxo-1-(2,2,2-trifluoroethyl)-1,6-dihydropyridazin-4-yl]oxy}acetamido)bicyclo[2.2.2]octan-1-yl]acetamide] as the molecule, how does the EC50 read?
The EC50 was 500 to 2000 nM.

Which EC50 does the source give for O=C(COc1ccc(S(F)(F)(F)(F)F)cc1)NC12CCC(NC(=O)COc3ccc(Cl)c(F)c3)(CC1)[C@@H](O)C2 [Compound 839, 2-(4-chloro-3-fluorophenoxy)-N-[(2S)-2-hydroxy-4-{2-[4-(pentafluoro-lambda^6-sulfanyl)phenoxy]acetamido}bicyclo[2.2.2]octan-1-yl]acetamide] here?
The EC50 was under 10 nM.

Which EC50 does the source give for Cc1ccc(OCC(=O)NC23CCC(NC(=O)COc4ccc(Cl)c(F)c4)(CC2)C[C@@H]3O)cc1C [Compound 510, 2-(4-chloro-3-fluorophenoxy)-N-{(3S)-4-[2-(3,4-dimethylphenoxy)acetamido]-3-hydroxybicyclo[2.2.2]octan-1-yl}acetamide] here?
The EC50 was under 10 nM.

Which EC50 does the source give for O=C(COc1ccc(C(F)(F)F)nc1)NC12CCC(NC(=O)COc3ccc(Cl)c(F)c3)(CC1)C(O)C2 (centres unmarked) [Compound 313, 2-(4-chloro-3-fluorophenoxy)-N-[2-hydroxy-4-(2-{[6-(trifluoromethyl)pyridin-3-yl]oxy}acetamido)bicyclo[2.2.2]octan-1-yl]acetamide] here?
Its EC50 is under 10 nM.

How did the EC50 turn out when COc1ccc(CNC23CCC(NC(=O)COc4ccc(Cl)c(F)c4)(CC2)C(O)C3)cc1 (centres unmarked) [Compound 314, 2-(4-chloro-3-fluorophenoxy)-N-(2-hydroxy-4-{[(4-methoxyphenyl)methyl]amino}bicyclo[2.2.2]octan-1-yl)acetamide] was run?
The EC50 was over 2000 nM.

How did the EC50 turn out when O=C(COc1ccc(Cl)c(F)c1)NC12CC(NC(=O)OCc3cccc(Cl)c3)(C1)C2 [Compound 164, (3-chlorophenyl)methyl {3-[2-(4-chloro-3-fluorophenoxy)-acetamido]bicyclo[1.1.1]pentan-1-yl}carbamate] was run?
Its EC50 is 500 to 2000 nM.

With O=C(COc1ccc(OC(F)(F)F)c(F)c1)NC12CCC(NC(=O)COc3ccc(Cl)c(F)c3)(CC1)[C@@H](O)C2 [Compound 761, 2-(4-chloro-3-fluorophenoxy)-N-[(2S)-4-{2-[3-fluoro-4-(trifluoromethoxy)phenoxy]acetamido}-2-hydroxybicyclo[2.2.2]octan-1-yl]acetamide] as the molecule, how does the EC50 read?
The EC50 was under 10 nM.

O=C(COCCc1ccc(Cl)cc1)NC12CC(NC(=O)COc3ccc(Cl)c(F)c3)(C1)C2 [Compound 135, 2-(4-chloro-3-fluorophenoxy)-N-(3-{2-[2-(4-chlorophenyl)ethoxy]acetamido}-bicyclo[1.1.1]pentan-1-yl)acetamide] was tested. Which EC50 did it give?
Its EC50 is 250 to 500 nM.

How did the EC50 turn out when Cc1ccc(OC(=O)NC23CC(NC(=O)COc4ccc(Cl)c(F)c4)(C2)C3)cc1 [Compound 435, 4-methylphenyl {3-[2-(4-chloro-3-fluorophenoxy)acetamido]bicyclo[1.1.1]pentan-1-yl}carbamate] was run?
The EC50 was 250 to 500 nM.

O=C(COc1ccc(Cl)c(F)c1)NC12CCC(NC(=O)COc3ccnc(C(F)(F)F)c3)(CC1)[C@@H](O)C2 (single isomer, unassigned) [Compound 319] was tested. Which EC50 did it give?
Its EC50 is under 10 nM.

O=C(COc1ccc2c(c1)OC(F)(F)O2)NC12CCC(NC(=O)COc3ccc(Cl)c(Cl)c3)(CC1)C(=O)N2 [Compound 604, 2-(3,4-dichlorophenoxy)-N-(1-{2-[(2,2-difluoro-2H-1,3-benzodioxol-5-yl)oxy]acetamido}-3-oxo-2-azabicyclo[2.2.2]octan-4-yl)acetamide] was tested. Which EC50 did it give?
The EC50 was 10 to 50 nM.

How did the EC50 turn out when CCc1cc(C)cc(OCC(=O)NC23CCC(NC(=O)COc4ccc(Cl)c(F)c4)(CC2)[C@@H](O)C3)c1 [Compound 463, 2-(4-chloro-3-fluorophenoxy)-N-{(2S)-4-[2-(3-ethyl-5-methylphenoxy)acetamido]-2-hydroxybicyclo[2.2.2]octan-1-yl}acetamide] was run?
Its EC50 is over 2000 nM.

For O=C(CC(NC1COC1)c1ccc(Cl)cc1)NC12CCC(NC(=O)COc3ccc(Cl)c(F)c3)(CC1)[C@@H](O)C2 (stereo partly drawn) [Compound 713, N-{(3S)-4-[2-(4-chloro-3-fluorophenoxy)acetamido]-3-hydroxybicyclo[2.2.2]octan-1-yl}-3-(4-chlorophenyl)-3-[(oxetan-3-yl)amino]propanamide], which EC50 is on record?
Its EC50 is over 2000 nM.

O=C(COc1ccc(Cl)c(F)c1)N[C@H]1C[C@H]2C[C@@H]1C[C@@H]2NC(=O)COc1ccc(Cl)c(F)c1 (single isomer, unassigned) [Compound 620] was tested. Which EC50 did it give?
Its EC50 is under 10 nM.

Cn1nc(C(F)(F)F)cc1OCC(=O)NC12CC(NC(=O)COc3ccc(Cl)c(F)c3)(C1)C2 [Compound 369, 2-(4-chloro-3-fluorophenoxy)-N-[3-(2-{[1-methyl-3-(trifluoromethyl)-1H-pyrazol-5-yl]oxy}acetamido)bicyclo[1.1.1]pentan-1-yl]acetamide] was tested. Which EC50 did it give?
The EC50 was over 2000 nM.

For O=C(CCCOc1cccc(Cl)c1)NC12CC(NC(=O)COc3ccc(Cl)c(Cl)c3)(C1)C2 [Compound 168, 4-(3-chlorophenoxy)-N-{3-[2-(3,4-dichlorophenoxy)acetamido]-bicyclo[1.1.1]pentan-1-yl}butanamide], which EC50 is on record?
The EC50 was 50 to 250 nM.

Which EC50 does the source give for O=C(COc1ccc(Cl)c(F)c1)NC12CCC(NC(=O)COc3ccc(Cl)c(Cl)c3)(CC1)C(=O)N2 [Compound 601, 2-(4-chloro-3-fluorophenoxy)-N-{4-[2-(3,4-dichlorophenoxy)acetamido]-3-oxo-2-azabicyclo[2.2.2]octan-1-yl}acetamide] here?
Its EC50 is under 10 nM.

With O=C(COc1ccc(Cl)c(F)c1)NC12CC(NC(=O)Cc3ccccc3)(C1)C2 [Compound 446, 2-(4-chloro-3-fluorophenoxy)-N-[3-(2-phenylacetamido)bicyclo[1.1.1]pentan-1-yl]acetamide] as the molecule, how does the EC50 read?
Its EC50 is over 2000 nM.

For O=C(COc1ccc(Cl)c(F)c1)NC12CC(NS(=O)(=O)CCc3ccc(F)cc3)(C1)C2 [Compound 480, 2-(4-chloro-3-fluorophenoxy)-N-(3-{[2-(4-fluorophenyl)ethanesulfonyl]amino}bicyclo[1.1.1]pentan-1-yl)acetamide], which EC50 is on record?
The EC50 was over 2000 nM.

How did the EC50 turn out when COC(=O)c1cc(OCC(=O)NC23CC(NC(=O)COc4ccc5c(c4)OC(F)(F)O5)(C2)C3)ccc1Cl [Compound 275, methyl 2-chloro-5-{2-1(3-{2-[(2,2-difluoro-2H-1,3-benzodioxol-5-yl)oxy]acetamido}bicyclo[1.1.1]pentan-1-yl)aminol-2-oxoethoxy}benzoate] was run?
The EC50 was 500 to 2000 nM.

How did the EC50 turn out when O=C(COc1ccc(Cl)c(F)c1)NC12CC(NC(=O)COc3ccc(Cl)c(CO)c3)(C1)C2 [Compound 224, 2-(4-chloro-3-fluorophenoxy)-N-(3-{2-[4-chloro-3-(hydroxymethyl)phenoxy]-acetamido}bicyclo[1.1.1]pentan-1-yl)acetamide] was run?
Its EC50 is 50 to 250 nM.
